Source: US20250025500A1, “PHOSPHATASE INHIBITORS AS NK CELLS MODULATORS FOR THE TREATMENT OF CANCER” (Kanyr Pharma Inc., priority 2021, published 2025)

How the values were obtained:
[1] = test system: PTPN1 and PTPN2 catalytic domain; details: Montalibet J, et al., J Biol Chem 2006; cited from earlier work
[2] = test system: NK-92 cells against Reh cells; assay: NK-92 cytolytic assay against NK resistant Reh target cells; assay type: cell-based, Human; details: 30 μM three days, IL-2 100 IU/mL, 3 h assay
Procedure: Human NK cell line NK-92 was purchased from American Type Culture Collection (ATCC) and cultured in α-MEM Essential Medium (no ribonucleoside and deoxyribonucleoside) supplemented with 0.2 mM Myo-inositol, 0.02 mM Folic Acid, 0.1 mM β-mercaptoethanol, 1% of Non-essential Amino Acids, 1×L-Glutamax, 1% of Penicillin/Streptomycin, 12.5% of heat-inactivated Horse, and 12.5% of heat-inactivated Characterized Fetal Bovine Serum or FBS. The media was supplemented freshly with 200 IU/mL of IL-2 upon cell thawing for one passage and 100 IU/mL of IL-2 for cell expansion. Human tumor cell lines K-562 and Reh were purchased from ATCC and were cultured in RPM11640 Medium supplemented with 1% of Penicillin/Streptomycin and 10% of heat inactivated FBS. HEK293T/17 cells and HCT116 cells were cultured in Dulbecco's Modified Eagle's Medium (DMEM) High Glucose Medium supplemented with 1% of Penicillin/Streptomycin and 10% of FBS. All cell lines were maintained in 5% CO2, 37° C. incubator, except that NK-92 were maintained in 6.5% CO2 incubator at 37° C. […]
NK-92 anti-tumor cytolysis function was assessed by flow cytometry-based analysis. […] Flow cytometry sample acquisition was performed with BDO LSRFortessa™ with a UV laser at Flow Cytometry Core Facility, McGill University, and data was analyzed with FlowJo™ 10.7.1 and summarized with Prism™ 9 (GraphPad™). […]

[3] = test system: JAK/STAT signaling in NK-92 cells; assay: JAK/STAT signaling Western blot and IL-2 stimulation assay in NK-92; assay type: cell-based, Human
Procedure: Total cell lysate was prepared with modified RIPA buffer (1M Tris-HCl (pH 7.5), 5M NaCl, 0.25% sodium deoxycholate, 10% NP-40 and 10 mM sodium fluoride) supplemented with ethylenediaminetetraacetic acid (EDTA)-free protease inhibitor (Roche™) and 2 mM sodium orthovanadate (Sigma-Aldrich™). Protein levels were quantified by bicinchoninic acid (BCA) assay. Protein lysate was separated by 10% SDS-PAGE and Western analysis was performed using primary antibodies listed in the tables below followed with horseradish peroxidase (HRP, 1:10,000, Jackson ImmunoResearch™) conjugated secondary antibodies.
For cytokine stimulation assay, NK-92 cells were pre-treated with L598 (30 μM) or vehicle control for three days. Before IL-2 stimulation, NK-92 cells were washed once with serum depleted cell media (no IL-2) and were starved for six hours in presence of L598 or vehicle control. After starvation, NK-92 cells were stimulated with IL-2 across a gradient concentration ranging from 0 to 90 IU/mL for 15 mins at 37° C. After incubation, cells were directly lysed with 2× concentrated TNE buffer and then boiled in 1× Laemmli Buffer to prepare cell lysates. Two independent experiments were performed.

NK-92 cells [4] = assay: NK-92 viability and proliferation under inhibitor treatment; assay type: cell-based, Human; details: various IL-2 concentration, vs vehicle control
NK-92 cells [5] = assay: IFN-γ ELISA of NK-92 supernatants; assay type: cell-based, Human; details: 30 μM three days, with or without K-562 (E:T 6:1), vs control
Procedure: Concentration of secreted IFN-γ in supernatants of NK-92 co-cultured with K-562 cells (E:T at 6:1) or no-stimulation control (K-562 cell media) for four hours was analyzed with Human IFN-γ ELISA Kit (R&D, DIF50) according to the manufacture's protocol. Results were normalized against IFN-γ secreted by K-562 alone treated with NK-92 cell media (no cytokine) for four hours.

[6] = test system: cord blood isolated NK cells; assay: Surface receptor expression on cord blood NK cells (flow cytometry); assay type: cell-based, Human; details: 30 μM, with or without K-562 stimulation E:T 1:1, three hours
From the text: Human cord blood derived NK cells (CB-NK) were kindly provided by Dr. Linda Peltier's Cellular Therapy Laboratory at McGill University Health Center (Montreal, Canada) in frozen format and were stored in liquid nitrogen tank until usage. Briefly, 1×10^7 cells were resuspended in frozen medium consisting of ImmunoCult T Cell Medium supplemented with 10% DMSO final concentration. Frozen CB-NK cells were thawed, and ex vivo expanded at Goodman Cancer Research Center (GCRC) for five days in xeno-free ImmunoCult T cell expansion media supplemented with 10% PlasmaLyte A and freshly with a cytokine cocktail of IL-2 (5 ng/mL), IL-7 (5 ng/mL), IL-15 (5 ng/mL), SCF (15 ng/mL) and FLT3/L (10 ng/mL) every two days. […] On day three, inhibitor L598 and fresh cytokine cocktails were supplemented to the cell media. NK cell population purity and immunophenotype profiling of major activating and inhibitory receptors were assessed upon receiving shipments, after ex vivo expansion for five days and after anti-tumor cytolytic assay.

Substance: 7-bromo-6-phosphono(difluoro-methyl)-3-napthalenonitrile [L598]
- binding specificity for PTPN1 and PTPN2 over other protein tyrosine phosphatases [1]: binds specifically to their catalytic domain but no other protein tyrosine phosphatases
- NK-92 cytolysis towards NK resistant target cells Reh [2]: did not improve
- sensitivity to low dosage short-term IL-2 stimulation (phospho-STAT1, 3, 4, 5) ([3]; 30 μM three days, starved six hours, IL-2 below 100 IU/mL, 15 mins): more sensitive
- minimum IL-2 at which increased STAT5 phosphorylation is detectable ([3]; IL-2 stimulation 15 mins after starvation): 30 IU/mL
- total protein expression of STAT members ([3]; IL-2 stimulation assay): might upregulate
- phosphorylation of STAT1, STAT3 and STAT4 under TGF-β1 and IL-2 ([3]; TGF-β1 and IL-2 stimulation condition): retained enhanced phosphorylation
- basal phosphorylation of STAT1, STAT3 and STAT4 ([3]; after six-hours serum and cytokine starvation in presence of inhibitor): increased
- phosphorylation of STAT2 and STAT6 ([3]; regular cell culture, inhibitor titration, three days): relatively stable
- phosphorylation of STAT1, STAT3, STAT4 and STAT5 ([3]; regular cell culture, inhibitor titration, three days, dosage dependent): increased phosphorylation
- NK-92 proliferation (NK-92 cells [4]): proliferate slightly faster
- IFN-γ protein secretion (NK-92 cells [5]): significantly more
- CD69 and activating receptor expression on cord blood NK cells [6]: upregulation
